Where two headings read alike, the source gives them in different places.
Experiments:
Solubility in solvents = type: physicochemical
[1] = Stability in aqueous solution; type: physicochemical; settings: pH in the range from 3.0 to 7.0
[2] = system: α-glucosidase derived from pig liver; test: Hydrolysis by α-glucosidase derived from pig liver; type: in vitro ADME; settings: pig liver enzyme; forms 1 mole of D-glucose per 1 mole of kasugamycin
[3] = system: α-glucosidase derived from seeds of rice plant; test: Hydrolysis by α-glucosidase derived from seeds of rice plant; type: in vitro ADME; settings: enzyme from seeds of rice plant; forms 1 mole of D-glucose per 1 mole of kasugamycin
[4] = system: α-glucosidase derived from microorganisms of the genus Mucor; test: Hydrolysis by α-glucosidase derived from microorganisms of the genus Mucor; type: in vitro ADME; settings: enzyme from genus Mucor; forms 1 mole of D-glucose per 1 mole of kasugamycin
dd mice = test: Acute toxicity; type: in vivo; settings: peritoneally administered; 7 week-old dd mice; highest dose 3,000 mg per kg body weight
Description: The α-D-glucosyl kasugamycin was peritoneally administered to 7 week-old dd mice for acute toxicity test.

[5] = pH Stability test of α-D-glucosyl kasugamycin; type: physicochemical; settings: 120° C. for 1 hour; for Residue (%) / remaining at 1 h: mean, n = 5; for remaining at 1 h: buffer, read-out: Residue (%)
Description: Fifty μl of 2.56 w/v % aqueous solution of α-D-glucosyl kasugamycin (purity: about 80%), which was prepared according to the method described in Example 3 was mixed with 450 μl of a buffer adjusted to pH 2.0, 4.0, 6.0, 8.0 or 10.0. The mixture was kept at 120° C. for 1 hour in a well-closed container. As the buffer was used 1M HCl- Sodium acetate buffer (pH 2.0 or pH 4.0), 1M acetic acid buffer (pH 6.0), 1M Tris-HCl buffer (pH 8.0) or 1M NH4 OH- NH4 Cl buffer (pH 10.0).
Each of thus obtained mixtures was cooled with a running water. Then, the mixture was diluted 5 times with 0.5M Na3 PO4 -H3 PO4 (pH 6.0). Successively, the diluted mixture subjected to HPLC under the following conditions.
As a comparison was used a sample obtained by diluting 5 times a mixture of 50 μl of 2.56 w/v % aqueous solution of α-D-glucosyl kasugamycin and 450 μl of deionized water with 0.5M Na3 PO4 -H3 PO4 (pH 6.0).
Residue was calculated on the basis of a ratio of the peak area of α-D-glucosyl kasugamycin in each treated mixture to that in the sample as a comparison.
Also, 1.0 w/v % aquous solution of kasugamycin purchased from Hokko Kagaku Kogyo Kabushiki Kaisha was treated in the same manner as described in the case of α-D-glucosyl kasugamycin. Residue in each pH condition was calculated.
Column: ODS-M (commercially avairable from Shimazu Techno Research Co., Ltd.)
Eluate: Acetonitrile/Water*=8/92 (v/v) *0.2M CH3 (CH2)5 SO3 Na (pH was not adjusted) 0.005M Na3 PO4 -H3 PO4 (pH 6.0)

α-D-glucosyl kasugamycin
Solubility in 0.1N hydrochloric acid (Solubility in solvents; 0.1N hydrochloric acid): readily soluble | Solubility in 0.1N sodium hydroxide (Solubility in solvents; 0.1N sodium hydroxide): readily soluble | Solubility in acetic acid (Solubility in solvents; acetic acid): readily soluble | Solubility in chloroform (Solubility in solvents; chloroform): insoluble | Solubility in ethanol (Solubility in solvents; ethanol): substantially insoluble | Solubility in ethyl acetate (Solubility in solvents; ethyl acetate): insoluble | Solubility in methanol (Solubility in solvents; methanol): substantially insoluble | Solubility in water (Solubility in solvents; water): readily soluble | solubility in water relative to that of kasugamycin (Solubility in solvents; water, room temperature, vs kasugamycin): not less than fivefold | Stability in an aqueous solution [1]: excellently stable | Hydrolysis by α-glucosidase [2]: readily hydrolyed | Hydrolysis by α-glucosidase [3]: readily hydrolyed | Hydrolysis by α-glucosidase [4]: readily hydrolyed | deaths (acute toxicity) (dd mice): not observed any deaths | Residue (%) ([5]; pH 2.0): 76.2% | Residue (%) ([5]; pH 4.0): 75.2% | Residue (%) ([5]; pH 6.0): 26.9% | times stabler than kasugamycin ([5]; pH 8.0, 17.6/9.5): approximately 1.85 times | Residue (%) ([5]; pH 8.0): 17.6% | Residue (%) ([5]; pH 10.0): trace

C[C@H]1O[C@H](O[C@H]2[C@H](O)[C@@H](O)[C@@H](O)[C@H](O)[C@@H]2O)[C@@H](N)C[C@@H]1NC(=N)C(=O)O [Kasugamycin, kasugamycin]
remaining at 1 h ([5]; pH 2.0): 76% | remaining at 1 h ([5]; pH 4.0): 72.1% | remaining at 1 h ([5]; pH 6.0): 26.8% | remaining at 1 h ([5]; pH 8.0): 9.5% | Residue (%) ([5]; pH 10.0): trace
